Assay results published in patent US4175081A, “5-Substituted thiadiazole ureas” (priority 1977, dated 1979).

Key:
[1] = tested on: Cotton (CT); test: Post-emergence herbicide test; type: in vivo, Gossypium hirsutum var. DPL smooth leaf; details: Gossypium hirsutum, post-emergence, 336 h, two weeks after treatment
In short: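 Cotton (Gossypium hirsutum var. DPL smooth leaf) was grown in 3' plastic pots of potting soil, four seeds per pot, planted at a depth equal to the seed diameter and watered by sub-irrigation. At the stage of expanded cotyledons with the first true leaf 1' long, plants were sprayed post-emergence in a hood with a fixed nozzle over a moving belt. Percent control was rated visually two weeks later.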

[2] = tested on: Turnip (TP); test: Pre-emergence herbicide test; type: in vivo, Brassica sp.; details: Brassica rapa, pre-emergence, 336 h, two weeks after treatment
In short: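 Turnip (Brassica sp.) seeds were surface sown in 3' plastic pots of potting soil, covered with a thin layer of screened soil, and sub-irrigated in greenhouse trays. Pots were seeded one day ahead of treatment, sprayed pre-emergence under a hood with a fixed nozzle and moving belt, then kept in the greenhouse.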

[3] = tested on: Cotton (CT); test: Pre-emergence herbicide test; type: in vivo, Gossypium hirsutum var. DPL smooth leaf; details: Gossypium hirsutum, 336 h, two weeks after treatment
In short: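 Crop and weed species seeded one day before treatment, then sprayed pre-emergence at 8 lbs actual compound per acre (also 4 lbs/acre formulations) in 38 gallons per acre. Pots kept in greenhouse with sub-irrigation only; injury or control visually rated two weeks after treatment.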

[4] = tested on: Crabgrass (CG); test: Pre-emergence herbicide test; type: in vivo, Digitaria sanquinalis; details: Digitaria sanguinalis, pre-emergence, 336 h, two weeks after treatment
In short: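 Crabgrass (Digitaria sanquinalis) was surface seeded in 3' plastic pots of potting soil, covered with screened soil, and watered by sub-irrigation in greenhouse trays. Pots were seeded one day before spraying in a hood with a moving belt and fixed nozzle. Plants stayed in the greenhouse on sub-irrigation, and pre-emergence control was rated visually two weeks after treatment.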

[5] = tested on: Bean (BN); test: Pre-emergence herbicide test; type: in vivo, Phaseolus vulgaris var. Black Valentine; details: Phaseolus vulgaris, 336 h, two weeks after treatment
In short: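 Black Valentine bean was seeded in potting soil one day before spraying. Compound was applied pre-emergence at 8 lbs/acre (also 4 lbs/acre) in 38 gallons per acre. Plants were sub-irrigated and injury or control was rated visually after two weeks.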

[6] = tested on: Johnson grass (JG); test: Pre-emergence herbicide test; type: in vivo, Sorgum helepense; details: Sorghum halepense, 336 h, two weeks after treatment
In short: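 Pots seeded one day before spraying; compound applied pre-emergence at 8 lbs/acre (or 4 lbs/acre) in 38 gallons/acre spray volume. Sub-irrigated in greenhouse; injury/control rated visually two weeks after treatment.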

[7] = tested on: Amaranth pigweed (PW); test: Pre-emergence herbicide test; type: in vivo, Amaranthus retroflexus; details: 336 h, two weeks after treatment
Description: All crop and weed species were planted individually in 3' plastic pots containing potting soil. Four seeds each of corn, cotton, and snapbeans were seeded to a depth equal to the diameter of the seed. All other species were surface seeded and sprinkled with screened soil in an amount sufficient to cover the seed. Immediately after planting, all pots were watered by sub-irrigation in greenhouse trays. Pots for the pre-emergence phase were seeded one day before treatment.
Compounds were tested at rates of application equivalent to 8 lbs. of actual compound per acre in a spray volume of 38 gallons per acre. Spray hood constants required to deliver the above volume are as follows:
Formulations for spray applications were prepared in 50 ml volumes with the following three components:
Formulations for the 4 lbs/acre rate were prepared by adjusting the amount of active ingredient accordingly.
Spray applications were made in a hood containing a removable belt and fixed spray nozzle. For passage through the spray hood, one pot of each specie (pre-emergence phase) was placed on the rear half of the flat. Treatments were removed to the greenhouse after spraying. Watering during the observation period was done only by sub-irrigation.
Two weeks after treatment, pre- and post-emergence injury or control was visually rated, and the results were as shown in the following tables. Pre-emergence data are provided in TABLE III and post-emergence data are provided in TABLE IV, for compounds having the formula illustrated in TABLE I. Correspondingly, pre-emergence and post-emergence data, respectively, are set forth in TABLES V AND VI, for compounds having the formula illustrated in TABLE II.

[8] = tested on: Bean (BN); test: Post-emergence herbicide test; type: in vivo, Phaseolus vulgaris var. Black Valentine; details: Phaseolus vulgaris, post-emergence, 336 h, two weeks after treatment
In short: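 Snapbean (Phaseolus vulgaris var. Black Valentine) was tested post-emergence. Four seeds were sown in 3' plastic pots of potting soil at a depth equal to the seed diameter, then sub-irrigated in greenhouse trays. Planting dates were staggered so plants were sprayed once primary leaves had expanded, with the growing point at the primary leaf nodes.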

[9] = tested on: Crabgrass (CG); test: Post-emergence herbicide test; type: in vivo, Digitaria sanquinalis; details: Digitaria sanguinalis, post-emergence, 336 h, two weeks after treatment
In short: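 Crabgrass (Digitaria sanquinalis) was surface seeded individually in 3' plastic pots of potting soil, covered with screened soil, and watered by sub-irrigation in greenhouse trays. Planting was staggered so seedlings reached the target stage together. Post-emergence sprays were applied in a hood with a removable belt and fixed nozzle, and control was visually rated two weeks after treatment.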

[10] = tested on: Turnip (TP); test: Post-emergence herbicide test; type: in vivo, Brassica sp.; details: Brassica rapa, post-emergence, 336 h, two weeks after treatment
In short: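 A greenhouse post-emergence herbicide test on turnip. Seeds were sown on the surface of potting soil in 3' plastic pots, lightly covered with screened soil and watered from below. Planting was timed so seedlings had 1 or 2 true leaves above the cotyledons at spraying, done in a hood with a fixed nozzle. Control or injury was scored by eye after two weeks.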

[11] = tested on: Corn (CN); test: Pre-emergence herbicide test; type: in vivo; details: Zea mays, 336 h, two weeks after treatment
In short: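 Four corn seeds per pot, sown at seed-diameter depth one day before spraying, got soil surface treatment at 8 lbs/acre (4 lbs/acre formulations also prepared) in 38 gallons/acre. Pots were greenhouse-held with sub-irrigation only. Injury or control was scored visually two weeks after treatment.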

[12] = tested on: Barnyard grass (BG); test: Pre-emergence herbicide test; type: in vivo; details: Echinochloa crus-galli, 336 h, two weeks after treatment
In short: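 Barnyard grass surface-seeded in potting soil and sprayed pre-emergence one day after seeding, at 8 or 4 lb compound/acre in 38 gal/acre spray volume. Pots kept in greenhouse with sub-irrigation only; injury or control rated visually two weeks after treatment.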

Structure (SMILES): CCSc1nnc(N(C)C(=O)NC)s1 [Example 89]
- pest or weed control at 560.425 g/ha ([1]; 0.5 lb/acre): 90%
- pest or weed control at 1120.85 g/ha ([1]; 1 lb/acre): 100%
- pest or weed control at 2241.7 g/ha ([1]; 2 lb/acre): 100%
- pest or weed control at 4483.4 g/ha ([1]; 4 lb/acre): 100%
- pest or weed control at 560.425 g/ha ([2]; 0.5 lb/acre): 30%
- pest or weed control at 1120.85 g/ha ([2]; 1 lb/acre): 70%
- pest or weed control at 2241.7 g/ha ([2]; 2 lb/acre): 80%
- pest or weed control at 4483.4 g/ha ([2]; 4 lb/acre): 90%
- pest or weed control at 560.425 g/ha ([3]; 0.5 lb/acre): 10%
- pest or weed control at 1120.85 g/ha ([3]; 1 lb/acre): 10%
- pest or weed control at 2241.7 g/ha ([3]; 2 lb/acre): 10%
- pest or weed control at 4483.4 g/ha ([3]; 4 lb/acre): 50%
- pest or weed control at 560.425 g/ha ([4]; 0.5 lb/acre): 50%
- pest or weed control at 1120.85 g/ha ([4]; 1 lb/acre): 90%
- pest or weed control at 2241.7 g/ha ([4]; 2 lb/acre): 90%
- pest or weed control at 4483.4 g/ha ([4]; 4 lb/acre): 100%
- pest or weed control at 560.425 g/ha ([5]; 0.5 lb/acre): 10%
- pest or weed control at 1120.85 g/ha ([5]; 1 lb/acre): 10%
- pest or weed control at 2241.7 g/ha ([5]; 2 lb/acre): 10%
- pest or weed control at 4483.4 g/ha ([5]; 4 lb/acre): 10%
- pest or weed control at 560.425 g/ha ([6]; 0.5 lb/acre): 40%
- pest or weed control at 1120.85 g/ha ([6]; 1 lb/acre): 50%
- pest or weed control at 2241.7 g/ha ([6]; 2 lb/acre): 80%
- pest or weed control at 4483.4 g/ha ([6]; 4 lb/acre): 70%
- pest or weed control at 560.425 g/ha ([7]; 0.5 lb/acre): 70%
- pest or weed control at 1120.85 g/ha ([7]; 1 lb/acre): 100%
- pest or weed control at 2241.7 g/ha ([7]; 2 lb/acre): 100%
- pest or weed control at 4483.4 g/ha ([7]; 4 lb/acre): 100%
- pest or weed control at 560.425 g/ha ([8]; 0.5 lb/acre): 90%
- pest or weed control at 1120.85 g/ha ([8]; 1 lb/acre): 100%
- pest or weed control at 2241.7 g/ha ([8]; 2 lb/acre): 100%
- pest or weed control at 4483.4 g/ha ([8]; 4 lb/acre): 100%
- pest or weed control at 560.425 g/ha ([9]; 0.5 lb/acre): 40%
- pest or weed control at 1120.85 g/ha ([9]; 1 lb/acre): 50%
- pest or weed control ([9]; 2 lb/acre): 90%
- pest or weed control at 4483.4 g/ha ([9]; 4 lb/acre): 90%
- pest or weed control at 560.425 g/ha ([10]; 0.5 lb/acre): 100%
- pest or weed control at 1120.85 g/ha ([10]; 1 lb/acre): 100%
- pest or weed control at 2241.7 g/ha ([10]; 2 lb/acre): 100%
- pest or weed control at 4483.4 g/ha ([10]; 4 lb/acre): 100%
- pest or weed control at 560.425 g/ha ([11]; 0.5 lb/acre): 10%
- pest or weed control at 1120.85 g/ha ([11]; 1 lb/acre): 50%
- pest or weed control at 2241.7 g/ha ([11]; 2 lb/acre): 40%
- pest or weed control at 4483.4 g/ha ([11]; 4 lb/acre): 50%
- pest or weed control at 560.425 g/ha ([12]; 0.5 lb/acre): 30%
- pest or weed control at 1120.85 g/ha ([12]; 1 lb/acre): 80%
- pest or weed control at 2241.7 g/ha ([12]; 2 lb/acre): 80%
- pest or weed control at 4483.4 g/ha ([12]; 4 lb/acre): 100%
